ChEMBL document CHEMBL4251602, “Synthesis and biological evaluation of novel 1-(aryl-aldehyde-oxime)uracil derivatives as a new class of thymidine phosphorylase inhibitors” (Eur J Med Chem, 2018)

T1: Thymidine phosphorylase (Homo sapiens, UniProt P19971)
T1 sequence (P19971 whole entry): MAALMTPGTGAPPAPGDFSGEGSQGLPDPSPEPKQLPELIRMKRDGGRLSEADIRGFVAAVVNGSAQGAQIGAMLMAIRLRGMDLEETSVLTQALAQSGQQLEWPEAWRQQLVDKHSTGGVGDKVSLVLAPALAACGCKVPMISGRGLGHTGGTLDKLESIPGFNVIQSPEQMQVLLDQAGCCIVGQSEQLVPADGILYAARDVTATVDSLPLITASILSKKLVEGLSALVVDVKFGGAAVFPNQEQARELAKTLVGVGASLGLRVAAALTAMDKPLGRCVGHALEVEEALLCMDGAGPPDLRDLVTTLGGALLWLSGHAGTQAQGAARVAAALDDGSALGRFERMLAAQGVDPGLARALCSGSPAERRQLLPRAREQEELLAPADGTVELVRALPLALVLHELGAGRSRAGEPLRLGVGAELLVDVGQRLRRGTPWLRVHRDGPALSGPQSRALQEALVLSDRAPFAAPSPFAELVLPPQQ

B1: Thymidine phosphorylase (Homo sapiens), P19971 (protein)
chain: T1 sequence (P19971 whole entry)

How the values were obtained:
Thymidine phosphorylase = target: T1, Thymidine phosphorylase
NIH3T3 [1] = assay: Cytotoxicity against mouse 3T3 cells by SRB assay; format: functional, cell-based
NIH3T3 [2] = assay: Cytotoxicity against mouse 3T3 cells at 50 uM by SRB assay; format: cell-based; details: nih3t3, 50 µM
[3] = Stability in water assessed as parent pure compound remaining at 1 mg measured within 10 days by HPLC analysis (reference value: 95%); format: physicochemical; details: read-out: Stability
[4] = Stability in bovine serum assessed as parent pure compound remaining at 1 mg measured within 10 days by HPLC analysis; format: ADME, cell-free, Bos taurus; details: cattle, 240 h
[5] = substrate: Cc1cc(=O)[nH]c(=O)n1/C(=N\O)c1ccc(Cl)c(Cl)c1; details: Homo sapiens

| Molecule | IC50 (Thymidine phosphorylase) [µM] | other results |
| --- | --- | --- |
| Cc1cc(=O)[nH]c(=O)n1/C(=N\O)c1cccs1 | 39.9 |  |
| CCc1ccc(/C(=N\O)n2cc(I)c(=O)[nH]c2=O)cc1 | 10.7 |  |
| Cc1cc(=O)[nH]c(=O)n1/C(=N\O)c1ccccc1 | 21.4 |  |
| C[C@@H]1C[C@@H]([C@H](O)CC2CC(=O)NC(=O)C2)C(=O)[C@@H](C)C1 [CYCLOHEXIMIDE] |  | IC50 (NIH3T3 [1]): 0.3 µM |
| CCc1ccc(/C(=N/O)n2c(C)cc(=O)[nH]c2=O)cc1 | 3.4 | Activity (NIH3T3 [2]): Non-Toxic |
| O=c1[nH]c(=O)n(/C(=N/O)c2ccccc2F)cc1I | 53.7 |  |
| Cc1cccc(/C(=N/O)n2c(C)cc(=O)[nH]c2=O)c1 | 15.9 |  |
| Cc1ccc(/C(=N\O)n2cc(I)c(=O)[nH]c2=O)cc1 | 22.5 |  |
| O=c1[nH]c(=O)n(/C(=N/O)c2ccccc2)cc1I | 37.3 |  |
| COc1cccc(/C(=N\O)n2cc(I)c(=O)[nH]c2=O)c1 | 33.4 |  |
| Cc1cc(=O)[nH]c(=O)n1/C(=N\O)c1ccccc1F | 49.3 |  |
| Cc1cc(=O)[nH]c(=O)n1/C(=N\O)c1ccc(F)cc1 | 44.1 |  |
| Cc1cc(=O)[nH]c(=O)n1/C(=N\O)c1cccc(F)c1 | 41.2 |  |
| O=c1[nH]c(=O)n(/C(=N/O)c2ccc(F)cc2)cc1I | 41.3 |  |
| Cc1ccc(/C(=N/O)n2c(C)cc(=O)[nH]c2=O)cc1 | 7.2 | Activity (NIH3T3 [2]): Non-Toxic |
| Cc1cc(=O)[nH]c(=O)n1/C(=N\O)c1ccc(Cl)cc1 | 1.4 | Activity (NIH3T3 [2]): Non-Toxic |
| CO/N=C(\c1ccccc1)n1c(C)cc(=O)[nH]c1=O | 85.6 |  |
| Cc1cc(=O)[nH]c(=O)n1/C(=N\O)c1ccc(Cl)c(Cl)c1 | 0.12 | remaining at 240 h [3]: 87%; Stability [4]: Stable; Activity (NIH3T3 [2]): Non-Toxic |
| Cc1cc(=O)[nH]c(=O)n1/C(=N\O)c1ccc(Br)cc1 | 2.7 |  |
| Cc1cc(=O)[nH]c(=O)n1C(=O)c1ccccc1 | 92.4 |  |
| COc1cccc(/C(=N/O)n2c(C)cc(=O)[nH]c2=O)c1 | 25.1 |  |
| COc1ccc(/C(=N/O)n2c(C)cc(=O)[nH]c2=O)cc1 | 16.5 |  |
| COc1ccc(/C(=N\O)n2cc(I)c(=O)[nH]c2=O)cc1 | 25.2 |  |
| O=c1[nH]c(=O)n(/C(=N/O)c2ccc(Cl)cc2)cc1I | 15.6 |  |
| B1 |  | Km [5]: 2000 µM |
